Several values for one entry are separate records, joined by “and”; a condition that tells them apart may be missing. Identical values can stand only once. Like-named read-outs stand apart in the source and are kept apart here.
Assays:
[1] = type: in vivo, rhesus macaques
Excerpt: WRAIR is fully accredited by AAALAC International.

[2] = Toxicity by high-content imaging; type: cell-based, Aedes albopictus; conditions: Aedes albopictus, C6/36 cells
Procedure: (§1) A potential toxic effect on host cells was tested in parallel, while omitting virus infection, using the MTS/PMS method (Promega) for Vero cells, or by high-content imaging for C6/36 cells, as described previously. […] RT–qPCR data were analysed using the QuantStudio 12K Flex software (v.1.2.3) or SDS v.1.2 Applied Biosystems software. Inhibition values for antiviral molecules were plotted using KaleidaGraph plotting software (v.4.03, Synergy Software).

[3] = tested on: C6/36 cells; test: Toxicity by high-content imaging; type: cell-based, Aedes albopictus; conditions: C3/36 cells; read-out: CC50, individual values
Procedure: as §1

[4] = tested on: DENV-1 G3 Malaysia; type: cell-based; conditions: T108I in NS4B
[5] = tested on: DENV-2/16681/eGFP; test: microbe, parasite or virus in culture; type: cell-based; conditions: Dengue virus, DENV2, Vero
[6] = tested on: DENV-1/45AZ5; test: NHP DENV-1 study, IgM/IgG ELISA; conditions: for IgG ELISA Titer / IgM ELISA Titer: Negative = 100
[7] = rhesus monkey, in vivo
[8] = tested on: HCV Genotype 1b replicon; test: microbe, parasite or virus in culture; type: cell-based; conditions: Hepatitis C virus

With `COc1cc(N[C@H](C(=O)c2c[nH]c3ccc(OC(F)(F)F)cc23)c2ccc(Cl)cc2OC)cc(S(C)(=O)=O)c1` [JNJ-1802] the “Weight change (%)” value ([1]; Day 1, individual animals) was -0.3571% and -0.3226%, the “Weight change (%)” value ([1]; Day 3, individual animals) was -0.3571% and the “Weight change (%)” value ([1]; Day 5, individual animals) was 0.3226%. For the same compound, the “Weight change (%)” value ([1]; Day 8, individual animals) was 1.143%, the “Weight change (%)” value ([1]; Day 9, individual animals) was -1.29% and the “Weight change (%)” value ([1]; Day 10, individual animals) was 0.3226%. The “Weight change (%)” value ([1]; Day 29, individual animals) was 1.711%, the “Weight change (%)” value ([1]; Day -2, individual animals) was -0.3571% and 0.3226% and the CC50 ([2]; C3/36 cells, mean, read-out: CC50 Mean) was 14.4 µM. It also gave a CC50 ([2]; C3/36 cells, read-out: CC50, individual values) of 13.7 µM, a CC50 ([2]; C6/36, read-out: CC50) of 14.4 ± 1.1 µM and a CC50 [3] of 15.2 µM. It also gave an EC90 [4] of 0.00304 ± 0.00069 µM, an EC50 ([5]; Vero with 50% HS, read-out: EC50, protein-binding-adjusted) of 1.4 nM and an EC90 ([5]; Vero with 50% HS, read-out: EC90, protein-binding-adjusted) of 0.0048 ± 0.0014 µM. It also gave an EC50 ([5]; Vero, mean ± s.d., read-out: EC50) of 0.059 ± 0.03 nM, an EC90 ([5]; Vero, read-out: EC90) of 0.000161 ± 8.3e-05 µM and an EC50 ([5]; two DENV-2 laboratory strains in Vero, Huh-7, C6/36, THP-1/DC-SIGN, read-out: mean EC50, range) of 0.059 to 1.24 nM. The “IgM and IgG responses” value ([6]; 6 mg per kg per day q.d.) was “undetectable”, the “IgG ELISA Titer” value ([6]; animal R7, Day 0) was 100 and the “IgM ELISA Titer” value ([6]; animal R7, Day 0) was 100. The “IgG ELISA Titer” value ([6]; animal R7, Day 5) was 100, the “IgM ELISA Titer” value ([6]; animal R7, Day 5) was 100 and the “IgG ELISA Titer” value ([6]; animal R7, Day 7) was 100. For the same compound, the “IgM ELISA Titer” value ([6]; animal R7, Day 7) was 100, the “IgG ELISA Titer” value ([6]; animal R7, Day 9) was 100 and the “IgM ELISA Titer” value ([6]; animal R7, Day 9) was 100. The “IgG ELISA Titer” value ([6]; animal R7, Day 11) was 100, the “IgM ELISA Titer” value ([6]; animal R7, Day 11) was 100 and the “IgG ELISA Titer” value ([6]; animal R7, Day 14) was 100. The “IgM ELISA Titer” value ([6]; animal R7, Day 14) was 100, the “IgG ELISA Titer” value ([6]; animal R7, Day 29) was 100 and the “IgM ELISA Titer” value ([6]; animal R7, Day 29) was 100. The “IgG ELISA Titer” value ([6]; animal R8, Day 0) was 100, the “IgM ELISA Titer” value ([6]; animal R8, Day 0) was 100 and the “IgG ELISA Titer” value ([6]; animal R8, Day 5) was 100. For the same compound, the “IgM ELISA Titer” value ([6]; animal R8, Day 5) was 100, the “IgG ELISA Titer” value ([6]; animal R8, Day 7) was 100 and the “IgM ELISA Titer” value ([6]; animal R8, Day 7) was 100. The “IgG ELISA Titer” value ([6]; animal R8, Day 9) was 100, the “IgM ELISA Titer” value ([6]; animal R8, Day 9) was 100 and the “IgG ELISA Titer” value ([6]; animal R8, Day 11) was 100. For the same compound, the “IgM ELISA Titer” value ([6]; animal R8, Day 11) was 100, the “IgG ELISA Titer” value ([6]; animal R8, Day 14) was 100 and the “IgM ELISA Titer” value ([6]; animal R8, Day 14) was 100. For the same compound, the “IgG ELISA Titer” value ([6]; animal R8, Day 29) was 100, the “IgM ELISA Titer” value ([6]; animal R8, Day 29) was 100 and the “IgG ELISA Titer” value ([6]; animal R9, Day 0) was 100. For the same compound, the “IgM ELISA Titer” value ([6]; animal R9, Day 0) was 100, the “IgG ELISA Titer” value ([6]; animal R9, Day 5) was 100 and the “IgM ELISA Titer” value ([6]; animal R9, Day 5) was 100. The “IgG ELISA Titer” value ([6]; animal R9, Day 7) was 100, the “IgM ELISA Titer” value ([6]; animal R9, Day 7) was 100 and the “IgG ELISA Titer” value ([6]; animal R9, Day 9) was 100. For the same compound, the “IgM ELISA Titer” value ([6]; animal R9, Day 9) was 100, the “IgG ELISA Titer” value ([6]; animal R9, Day 11) was 100 and the “IgM ELISA Titer” value ([6]; animal R9, Day 11) was 100. The “IgG ELISA Titer” value ([6]; animal R9, Day 14) was 100, the “IgM ELISA Titer” value ([6]; animal R9, Day 14) was 100 and the “IgG ELISA Titer” value ([6]; animal R9, Day 29) was 100. The “IgM ELISA Titer” value ([6]; animal R9, Day 29) was 100, the “IgG ELISA Titer” value ([6]; animal R10, Day 0) was 100 and the “IgM ELISA Titer” value ([6]; animal R10, Day 0) was 100. The “IgG ELISA Titer” value ([6]; animal R10, Day 5) was 100, the “IgM ELISA Titer” value ([6]; animal R10, Day 5) was 100 and the “IgG ELISA Titer” value ([6]; animal R10, Day 7) was 100. The “IgM ELISA Titer” value ([6]; animal R10, Day 7) was 100, the “IgG ELISA Titer” value ([6]; animal R10, Day 9) was 100 and the “IgM ELISA Titer” value ([6]; animal R10, Day 9) was 100. The “IgG ELISA Titer” value ([6]; animal R10, Day 11) was 100, the “IgM ELISA Titer” value ([6]; animal R10, Day 11) was 100 and the “IgG ELISA Titer” value ([6]; animal R10, Day 14) was 100. For the same compound, the “IgM ELISA Titer” value ([6]; animal R10, Day 14) was 100, the “IgG ELISA Titer” value ([6]; animal R10, Day 29) was 100 and the “IgM ELISA Titer” value ([6]; animal R10, Day 29) was 100. The “IgG ELISA Titer” value ([6]; animal R11, Day 0) was 100, the “IgM ELISA Titer” value ([6]; animal R11, Day 0) was 100 and the “IgG ELISA Titer” value ([6]; animal R11, Day 5) was 100. The “IgM ELISA Titer” value ([6]; animal R11, Day 5) was 100, the “IgG ELISA Titer” value ([6]; animal R11, Day 7) was 100 and the “IgM ELISA Titer” value ([6]; animal R11, Day 7) was 100. The “IgG ELISA Titer” value ([6]; animal R11, Day 9) was 100, the “IgM ELISA Titer” value ([6]; animal R11, Day 9) was 100 and the “IgG ELISA Titer” value ([6]; animal R11, Day 11) was 100. For the same compound, the “IgM ELISA Titer” value ([6]; animal R11, Day 11) was 100, the “IgG ELISA Titer” value ([6]; animal R11, Day 14) was 100 and the “IgM ELISA Titer” value ([6]; animal R11, Day 14) was 100. The “IgG ELISA Titer” value ([6]; animal R11, Day 29) was 100, the “IgM ELISA Titer” value ([6]; animal R11, Day 29) was 100 and the “IgG ELISA Titer” value ([6]; animal R12, Day 0) was 100. For the same compound, the “IgM ELISA Titer” value ([6]; animal R12, Day 0) was 100, the “IgG ELISA Titer” value ([6]; animal R12, Day 5) was 100 and the “IgM ELISA Titer” value ([6]; animal R12, Day 5) was 100. The “IgG ELISA Titer” value ([6]; animal R12, Day 7) was 100, the “IgM ELISA Titer” value ([6]; animal R12, Day 7) was 100 and the “IgG ELISA Titer” value ([6]; animal R12, Day 9) was 100. For the same compound, the “IgM ELISA Titer” value ([6]; animal R12, Day 9) was 100, the “IgG ELISA Titer” value ([6]; animal R12, Day 11) was 100 and the “IgM ELISA Titer” value ([6]; animal R12, Day 11) was 100. For the same compound, the “IgG ELISA Titer” value ([6]; animal R12, Day 14) was 100, the “IgM ELISA Titer” value ([6]; animal R12, Day 14) was 100 and the “IgG ELISA Titer” value ([6]; animal R12, Day 29) was 100. The “IgM ELISA Titer” value ([6]; animal R12, Day 29) was 100, the haematological analysis [7] was “did not show any indication for a treatment-related effect” and the EC50 [8] was 5.5 µM. For the same compound, the EC50 ([8]; read-out: EC50, Mean) was 5.45 µM and the EC90 ([8]; read-out: EC90, Mean) was 20.3 µM.
